Laboratory results as given in patent US20210393565A1, “PREPARATION FOR USE TO INCREASE THE FORMATION OF ONE OR MORE SPECIALIZED PRO-RESOLVING LIPID MEDIATORS (SPM)” (Evonik Operations GmbH, priority 2018, published 2021).

Each molecule was assayed on Bacillus megaterium DSM 32963 cells (assay: Lipidometabolomics (UPLC-MS/MS) of culture supernatants with AvailOm, dissolved or as dispersion). Settings: not given.
Assay type: cell-based
Text: (§1) Bacterial supernatant samples were subjected to lipid extraction using RP-phase solid phase extraction and subsequently analyzed by ultra performance liquid chromatography ESI tandem mass spectrometry (UPLC-MS/MS) according to a published procedure. Under these conditions approximately 40 different LM, including 5-hydroxy-eicosapentaenoic acid 5-HEPE, 8-HEPE, 11-HEPE, 12-HEPE, 15-HEPE, 18-HEPE, 5-hydroxy-eicosatetraenoic acid (5-HETE), 8-HETE, 11-HETE, 12-HETE, 15-HETE, 4-hydroxy-DHA (4-HDHA), 7-HDHA, 13-HDHA, 14-HDHA, 17-HDHA, lipoxin A4 (LXA4), LXB4, resolvin E1 (RvE1), RvE3, resolvin D1-5 (RvD1-5), AT-RvD1, RvD2, protectin D1 (PD1), AT-PD1, maresin 1(MaR1), MaR2, plus 4 fatty acid substrates can be detected with a lower limit of detection of 1 pg.
To investigate if Bacillus megaterium is capable of producing other PUFA oxygenation products in addition to 18-HEPE, a lipidometabolomics screening of supernatants from Bacillus megaterium strain 32963 cultured as in example 4 with AvailOm® was performed, either dissolved or in a dispersion formulation, with or without bile acids. Cell-free preparations of AvailOm® formulations were treated and analyzed in parallel and served as controls for non-enzymatic, spontaneous formation of oxygenation products. Values given in table 6 display net concentrations of products formed, i.e. after subtraction of control values. […] Concentrations of several SPM exceed by far the concentrations of SPM found in human plasma samples, which are typically in a range of ˜20-100 pg/ml. For comparison, human breast milk contains ˜6.000 pg/ml RvE1 and ˜10.000 pg/ml RvD1 [42].

Row | Molecule | abundance with dispersion formulation and/or bile acids compared to AvailOm without both (in words)
1 | CCC(O)/C=C/C=C\C/C=C\C/C=C\C/C=C\CCCC(=O)O (stereo not drawn) [18-HEPE, 18-hydroxy-eicosapentaenoic acid] | lower
2 | 11-hydroxy-eicosapentaenoic acid [11-HEPE] | lower
3 | 9-hydroxyoctadecadienoic acid [9-HODE] | lower

Same assay, conditions: − bile acids, AvailOm dispersion; net after subtraction of cell-free control

Row | Molecule | Extracellular concentration of PUFA oxygenation product [pg/mL]
4 | CC/C=C\C[C@@H](O)/C=C/C=C\C=C\C=C\[C@@H](O)[C@@H](O)C/C=C\CCC(=O)O [AT-RvD1, Aspirin-triggered RvD1] | 4932
5 | CC/C=C\C[C@H](O)[C@H](O)/C=C/C=C/C=C\C=C\[C@@H](O)C/C=C\CCC(=O)O [RvD2] | 99
6 | CC/C=C\C/C=C\C[C@H](O)\C=C/C=C/C=C/[C@H](O)C/C=C\CCC(=O)O [MaR1, maresin 1] | 145
7 | CC/C=C\C[C@H](O)[C@@H](O)/C=C/C=C/C=C\C=C\[C@@H](O)CCCC(=O)O [LXB5, lipoxin B5] | 669042
8 | CC/C=C\C[C@H](O)\C=C/C=C/C=C/[C@H](O)C/C=C\C/C=C\CCC(=O)O [PD1 1, protectin D1] | 3841
9 | CC/C=C\C/C=C\C[C@H](O)[C@H](O)/C=C/C=C/C=C\C/C=C\CCC(=O)O [MaR2, maresin 2] | 197
10 | CC/C=C\C[C@H](O)/C=C/C=C\C=C\C=C\[C@@H](O)[C@@H](O)CCCC(=O)O [LXA5, lipoxin A5] | 41263
11 | CCCCC/C=C\C[C@@H](O)/C=C/C=C/C=C/[C@@H](O)CCCC(=O)O [t-LTB4] | 667
12 | CCCCC[C@H](O)[C@H](O)/C=C/C=C/C=C\C=C\[C@@H](O)CCCC(=O)O [LXB4, lipoxin B4] | 76301

Same assay, conditions: − bile acids, AvailOm; net after subtraction of cell-free control

Row | Molecule | Extracellular concentration of PUFA oxygenation product [pg/mL]
13 | CCC(O)/C=C/C=C\C/C=C\C/C=C\C/C=C\CCCC(=O)O (stereo not drawn) [18-HEPE, 18-hydroxy-eicosapentaenoic acid] | 24463
14 | CC/C=C\C[C@@H](O)/C=C/C=C\C=C\C=C\[C@@H](O)[C@@H](O)C/C=C\CCC(=O)O [AT-RvD1, Aspirin-triggered RvD1] | 519
15 | CC/C=C\C[C@H](O)[C@H](O)/C=C/C=C/C=C\C=C\[C@@H](O)C/C=C\CCC(=O)O [RvD2] | 87
16 | 11-hydroxy-eicosapentaenoic acid [11-HEPE] | 4659
17 | CC/C=C\C/C=C\C[C@H](O)\C=C/C=C/C=C/[C@H](O)C/C=C\CCC(=O)O [MaR1, maresin 1] | 114
18 | CC/C=C\C[C@H](O)[C@@H](O)/C=C/C=C/C=C\C=C\[C@@H](O)CCCC(=O)O [LXB5, lipoxin B5] | 2376
19 | CC/C=C\C[C@H](O)\C=C/C=C/C=C/[C@H](O)C/C=C\C/C=C\CCC(=O)O [PD1 1, protectin D1] | 113
20 | CC/C=C\C/C=C\C[C@H](O)[C@H](O)/C=C/C=C/C=C\C/C=C\CCC(=O)O [MaR2, maresin 2] | 120
21 | CC/C=C\C[C@H](O)/C=C/C=C\C=C\C=C\[C@@H](O)[C@@H](O)CCCC(=O)O [LXA5, lipoxin A5] | 7767
22 | CCCCC/C=C\C[C@@H](O)/C=C/C=C/C=C/[C@@H](O)CCCC(=O)O [t-LTB4] | 360
23 | 9-hydroxyoctadecadienoic acid [9-HODE] | 43

These molecules were tested on Bacillus megaterium DSM 33296 cells (assay: Lipidometabolomics of culture supernatants with AvailOm dispersion formulation). Settings: Bacillus megaterium DSM 33296, AvailOm dispersion formulation; net concentration.
Assay type: cell-based
Text: as §1
(§2) 47 additional Bacillus megaterium strains sourced from various habitats were screened for their SPM production capacity to determine if this is a general phenomenon of the species Bacillus megaterium and to detect strain-specific differences in types and quantities of SPM being produced. Cells were cultured as detailed in example 4, with dispersion formulation of AvailOm® serving as omega-3 fatty acid source. Cell-free preparations of AvailOm® were treated and analyzed in parallel and served as controls for non-enzymatic, spontaneous formation of oxygenation products. It was observed that all tested strains produced measurable (>1 pg/ml) amounts of various SPM and precursors thereof, that these amounts were hugely different between the strains (up to 2.000 fold), and that concentrations of RvE3 were particularly high (up to 1.3 μg/ml) in most of the strains.
(§3) Values given in table 7 display net concentrations of PUFA oxygenation products formed by two of the top performing strains, Bacillus megaterium DSM 33296 and Bacillus megaterium DSM 33299.

Row | Molecule | Extracellular concentration of PUFA oxygenation product [pg/mL]
24 | CCC(O)/C=C/C=C\C/C=C\C/C=C\C/C=C\CCCC(=O)O (stereo not drawn) [18-HEPE, 18-hydroxy-eicosapentaenoic acid] | 391397
25 | CC/C=C\C[C@@H](O)/C=C/C=C\C=C\C=C\[C@@H](O)[C@@H](O)C/C=C\CCC(=O)O [AT-RvD1, Aspirin-triggered RvD1] | 9612
26 | CC/C=C\C[C@H](O)[C@H](O)/C=C/C=C/C=C\C=C\[C@@H](O)C/C=C\CCC(=O)O [RvD2] | 265
27 | 11-hydroxy-eicosapentaenoic acid [11-HEPE] | 124860
28 | CC/C=C\C/C=C\C[C@H](O)\C=C/C=C/C=C/[C@H](O)C/C=C\CCC(=O)O [MaR1, maresin 1] | 1161
29 | CC/C=C\C[C@H](O)\C=C/C=C/C=C/[C@H](O)C/C=C\C/C=C\CCC(=O)O [PD1 1, protectin D1] | 99029
30 | CC/C=C\C/C=C\C[C@H](O)[C@H](O)/C=C/C=C/C=C\C/C=C\CCC(=O)O [MaR2, maresin 2] | 1522
31 | CC/C=C\C[C@H](O)/C=C/C=C\C=C\C=C\[C@@H](O)[C@@H](O)CCCC(=O)O [LXA5, lipoxin A5] | 4693
32 | CCCCC/C=C\C[C@@H](O)/C=C/C=C/C=C/[C@@H](O)CCCC(=O)O [t-LTB4] | 1780
33 | CC/C=C\C/C=C\C/C=C\C/C=C\C=C\C(O)C/C=C\CCC(=O)O (stereo not drawn) [7-HDHA, 7-hydroxy-DHA] | 202129
34 | CCCCC[C@H](O)/C=C/C=C\C=C\C=C\[C@@H](O)[C@@H](O)CCCC(=O)O [LXA4, lipoxin A4] | 1157

What follows are molecules tested on Bacillus megaterium DSM 33299 cells in the same assay as above. Settings: Bacillus megaterium DSM 33299, AvailOm dispersion formulation; net concentration.
Assay type: cell-based
Text: as §1, §2, §3

Row | Molecule | Extracellular concentration of PUFA oxygenation product [pg/mL]
35 | CCC(O)/C=C/C=C\C/C=C\C/C=C\C/C=C\CCCC(=O)O (stereo not drawn) [18-HEPE, 18-hydroxy-eicosapentaenoic acid] | 217725
36 | CC/C=C\C[C@@H](O)/C=C/C=C\C=C\C=C\[C@@H](O)[C@@H](O)C/C=C\CCC(=O)O [AT-RvD1, Aspirin-triggered RvD1] | 48243
37 | CC/C=C\C[C@H](O)[C@H](O)/C=C/C=C/C=C\C=C\[C@@H](O)C/C=C\CCC(=O)O [RvD2] | 428
38 | 11-hydroxy-eicosapentaenoic acid [11-HEPE] | 63306
39 | CC/C=C\C/C=C\C[C@H](O)\C=C/C=C/C=C/[C@H](O)C/C=C\CCC(=O)O [MaR1, maresin 1] | 1576
40 | CC/C=C\C[C@H](O)\C=C/C=C/C=C/[C@H](O)C/C=C\C/C=C\CCC(=O)O [PD1 1, protectin D1] | 75342
41 | CC/C=C\C/C=C\C[C@H](O)[C@H](O)/C=C/C=C/C=C\C/C=C\CCC(=O)O [MaR2, maresin 2] | 1233
42 | CC/C=C\C[C@H](O)/C=C/C=C\C=C\C=C\[C@@H](O)[C@@H](O)CCCC(=O)O [LXA5, lipoxin A5] | 128825
43 | CCCCC/C=C\C[C@@H](O)/C=C/C=C/C=C/[C@@H](O)CCCC(=O)O [t-LTB4] | 4181
44 | CC/C=C\C/C=C\C/C=C\C/C=C\C=C\C(O)C/C=C\CCC(=O)O (stereo not drawn) [7-HDHA, 7-hydroxy-DHA] | 243080
45 | CCCCC[C@H](O)/C=C/C=C\C=C\C=C\[C@@H](O)[C@@H](O)CCCC(=O)O [LXA4, lipoxin A4] | 1430
